In PubChem BioAssay (NCI):
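96-well plates; 48 h exposure; 5 concentrations. Endpoints by linear interpolation between flanking doses. Not reached: highest tested concentration assigned. At the GI50, growth is halved. The concentration for full growth arrest is given as TGI.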

Legend:
Test in all cases: growth of human tumour cells (NCI), 48 h
TK-10 renal = tested on: TK-10 renal
RXF 393 renal = tested on: RXF 393 renal
SF-539 CNS = tested on: SF-539 CNS
SNB-19 CNS = tested on: SNB-19 CNS
BT-549 breast = tested on: BT-549 breast
HL-60(TB) leukemia = tested on: HL-60(TB) leukemia
IGROV1 ovarian = tested on: IGROV1 ovarian
HS 578T breast = tested on: HS 578T breast
SN12C renal = tested on: SN12C renal
OVCAR-5 ovarian = tested on: OVCAR-5 ovarian
A549 NSCLC = tested on: A549 NSCLC
HCT-15 colon = tested on: HCT-15 colon
NCI-H226 lung = tested on: NCI-H226 lung
UO-31 renal = tested on: UO-31 renal
SK-MEL-2 melanoma = tested on: SK-MEL-2 melanoma
DU-145 prostate = tested on: DU-145 prostate
HOP-92 NSCLC = tested on: HOP-92 NSCLC
CAKI-1 renal = tested on: CAKI-1 renal
SK-MEL-28 melanoma = tested on: SK-MEL-28 melanoma
SF-295 CNS = tested on: SF-295 CNS
RPMI-8226 leukemia = tested on: RPMI-8226 leukemia
786-0 renal = tested on: 786-0 renal
MDA-MB-231 breast = tested on: MDA-MB-231 breast
HCT-116 colon = tested on: HCT-116 colon
KM12 colon = tested on: KM12 colon
K-562 leukemia = tested on: K-562 leukemia
LOX IMVI melanoma = tested on: LOX IMVI melanoma
SK-OV-3 ovarian = tested on: SK-OV-3 ovarian
MALME-3M melanoma = tested on: MALME-3M melanoma
NCI-H23 lung = tested on: NCI-H23 lung
HCC-2998 colon = tested on: HCC-2998 colon
PC-3 prostate = tested on: PC-3 prostate
NCI/ADR-RES ovarian = tested on: NCI/ADR-RES ovarian
ACHN renal = tested on: ACHN renal
M14 melanoma = tested on: M14 melanoma
SF-268 CNS = tested on: SF-268 CNS
COLO 205 colon = tested on: COLO 205 colon
NCI-H460 lung = tested on: NCI-H460 lung
UACC-62 melanoma = tested on: UACC-62 melanoma
NCI-H522 lung = tested on: NCI-H522 lung
OVCAR-3 ovarian = tested on: OVCAR-3 ovarian
SW-620 colon = tested on: SW-620 colon
SNB-75 CNS = tested on: SNB-75 CNS
A498 renal = tested on: A498 renal
MDA-MB-435 = tested on: MDA-MB-435
UACC-257 melanoma = tested on: UACC-257 melanoma
HOP-62 NSCLC = tested on: HOP-62 NSCLC
SK-MEL-5 melanoma = tested on: SK-MEL-5 melanoma
HT29 colon = tested on: HT29 colon
CCRF-CEM leukemia = tested on: CCRF-CEM leukemia
U251 CNS = tested on: U251 CNS
OVCAR-8 ovarian = tested on: OVCAR-8 ovarian
EKVX NSCLC = tested on: EKVX NSCLC
T-47D breast = tested on: T-47D breast

SMILES: O=C1Cc2c(-c3ccccc3)cc(-c3ccccc3)nc2-c2ccccc2N1
- GI50 (TK-10 renal): 2.48 µM
- TGI (TK-10 renal): 5.68 µM
- TGI (RXF 393 renal): > 100 µM
- TGI (SF-539 CNS): 34.4 µM
- TGI (SNB-19 CNS): 8.76 µM
- TGI (BT-549 breast): 22.5 µM
- TGI (HL-60(TB) leukemia): > 100 µM
- TGI (IGROV1 ovarian): 68.5 µM
- TGI (HS 578T breast): 19 µM
- TGI (SN12C renal): 30.8 µM
- TGI (OVCAR-5 ovarian): 21.2 µM
- TGI (A549 NSCLC): 26.6 µM
- TGI (HCT-15 colon): 4.4 µM
- TGI (NCI-H226 lung): 46.9 µM
- TGI (UO-31 renal): 11.4 µM
- TGI (SK-MEL-2 melanoma): 7.27 µM
- TGI (DU-145 prostate): 20.3 µM
- TGI (HOP-92 NSCLC): > 100 µM
- TGI (CAKI-1 renal): 19.9 µM
- TGI (SK-MEL-28 melanoma): 83.7 µM
- TGI (SF-295 CNS): 10.7 µM
- TGI (RPMI-8226 leukemia): > 100 µM
- GI50 (786-0 renal): 4.14 µM
- TGI (786-0 renal): 72.5 µM
- TGI (MDA-MB-231 breast): 17.2 µM
- TGI (HCT-116 colon): 5.37 µM
- TGI (KM12 colon): > 100 µM
- TGI (K-562 leukemia): > 100 µM
- TGI (LOX IMVI melanoma): > 100 µM
- TGI (SK-OV-3 ovarian): 18.9 µM
- TGI (MALME-3M melanoma): > 100 µM
- TGI (NCI-H23 lung): 36.6 µM
- TGI (HCC-2998 colon): 11.5 µM
- TGI (PC-3 prostate): 42.9 µM
- TGI (NCI/ADR-RES ovarian): 18.6 µM
- GI50 (ACHN renal): 4.04 µM
- TGI (ACHN renal): 19 µM
- TGI (M14 melanoma): 17.5 µM
- TGI (SF-268 CNS): 19.3 µM
- TGI (COLO 205 colon): 63.7 µM
- TGI (NCI-H460 lung): 29.6 µM
- TGI (UACC-62 melanoma): 25.7 µM
- TGI (NCI-H522 lung): 30.2 µM
- TGI (OVCAR-3 ovarian): 21.4 µM
- TGI (SW-620 colon): 82.5 µM
- TGI (SNB-75 CNS): 7.71 µM
- TGI (A498 renal): 59.2 µM
- TGI (MDA-MB-435): > 100 µM
- TGI (UACC-257 melanoma): > 100 µM
- TGI (HOP-62 NSCLC): 7.73 µM
- TGI (SK-MEL-5 melanoma): 7.58 µM
- TGI (HT29 colon): 28 µM
- TGI (CCRF-CEM leukemia): > 100 µM
- TGI (U251 CNS): 20 µM
- TGI (OVCAR-8 ovarian): 21 µM
- TGI (EKVX NSCLC): 80.3 µM
- TGI (T-47D breast): 38.4 µM
